Data published in patent publication US6432963B1, “Pyrimidine-5-carboxamide derivatives” (Yamanouchi Pharmaceutical Co., Ltd., priority 1997, dated 2002).
Counter-ions that a name gives are not always drawn.

target: T1, Syk tyrosine kinase (Homo sapiens, UniProt P43405); assay: Syk tyrosine kinase inhibition test (SPA system); type: biochemical; settings: His-tag fused human Syk, Band 3 peptide, [γ-33P]ATP, room temperature 1 hour; read-out: inhibition activity as IC50 value upon Syk tyrosine kinase
T1 construct: FLAG tag (8 amino acid residues) (C); made in house; host or cells: Sf-9 insect cells (baculovirus, pFASTBAC HT)

**Q.** For `NCCNc1ncc(C(N)=O)c(Nc2cccc([N+](=O)[O-])c2)n1` [2-(2-aminoethylamino)-4-(3-nitroanilino)pyrimidine-5-carboxamide], which IC50 is on record?
**A.** ≤ 100 nM

**Q.** For `NC(=O)c1cnc(NC2CCCCC2N)nc1Nc1cc(Cl)cc(Cl)c1` (stereo not drawn) [2-(cis-2-aminohexylamino)-4-(3,5-dichloroanilino)pyrimidine-5-carboxamide dihydrochloride], which IC50 is on record?
**A.** ≤ 100 nM

**Q.** With `NCCNc1ncc(C(N)=O)c(Nc2cccc(C(F)(F)F)c2)n1` [2-(2-aminoethylamino)-4-(3-trifluoromethylanilino)pyrimidine-5-carboxamide] as the compound, how does the IC50 read?
**A.** ≤ 100 nM

**Q.** For `NCCNc1ncc(C(N)=O)c(Nc2ccc3ccccc3c2)n1` [2-(2-aminoethylamino)-4-(2-naphthylamino)pyrimidine-5-carboxamide], which IC50 is on record?
**A.** ≤ 100 nM
